Key:
[1] = at 25° C.; cited from earlier work
[2] = system: LM36R human melanoma xenograft; assay: Tumor growth of vemurafenib-resistant LM36R melanoma xenograft in nude mice; assay type: in vivo, mouse; details: nude male mice, 5 mg of drug/kg per injection, bi-weekly tail vein, 4 weeks, n=5 per group; p-value 0.048 at week 4
Protocol: Vemurafenib-resistant LM36R human melanoma cells were inoculated (5.0×10^5 cells/mouse) into the right flank of athymic Nu/Nu nude male mice (Cr1:NU-Foxn1^nu strain code 088)) n=5 per group, and progression of tumor was recorded using the volume model of length×(width^2)×0.52. Mice were split into four groups consisting of a control (empty HANP), free Tris DBA-Pd, HANP with Tris DBA-Pd, and HANP with Tris DBA-Pd and αIGF1R antibody. Free Tris DBA-Pd was first dissolved in DMSO and then mixed with Kolliphor EL™. At last, the mixture was diluted by H2O before injection at concentration of 1 mg/mL of DBA. The ratio of DMSO, Kolliphor EL™ and H2O was controlled as 1:2:7 (v/v). The treatments were administered through bi-weekly tail vein injections over the course of 4 weeks (5 mg of drug/kg per injection). Tumor samples were analyzed for CD44 (hyaluronate receptor) expression by immunohistochemistry.

[3] = system: LM36R xenograft tumor; assay: Gene array / microarray RNA analysis of LM36R xenograft tumors; assay type: in vivo
Protocol: Gene array was performed on all tumors. […] By varying the delivery process of a single drug, one might be able to prevent resistance.
RNA Extraction and QC: RNA was extracted using the Qiagen miRNEasy™ kit with on column DNAse treatment. Tissue was lysed and homogenized in Qiazol™ with a rotor-stator probe homogenizer for 40 seconds or until fully disrupted (1 ml Qiazol™ per 100 mg of tissue). RNA was eluted in 50 ul nuclease free water. One microliter was used to determine OD (optical density) values on a Nanodrop 1000. One microliter was used to assess sample profiles on the Agilent 2100 using the RNA 6000 Nano assay. Total RNA (250 ng) was amplified and labeled using the ThermoFisher Scientific Illuina™ TotalPrep™ RNA Amplification kit. Labeled cRNA was hybridized to Illumina HT12™ bead array. Image acquisition and data extraction were performed.

[4] = Dispersion, solubility and stability in water, FBS, cell culture media; assay type: physicochemical; details: for solubility (general statement): water / not specified
[5] = target: T1, N-myristoyltransferase 1 (NMT1) (Homo sapiens, UniProt P30419); details: reported in literature; cited from earlier work
T1 sequence (P30419 1-496): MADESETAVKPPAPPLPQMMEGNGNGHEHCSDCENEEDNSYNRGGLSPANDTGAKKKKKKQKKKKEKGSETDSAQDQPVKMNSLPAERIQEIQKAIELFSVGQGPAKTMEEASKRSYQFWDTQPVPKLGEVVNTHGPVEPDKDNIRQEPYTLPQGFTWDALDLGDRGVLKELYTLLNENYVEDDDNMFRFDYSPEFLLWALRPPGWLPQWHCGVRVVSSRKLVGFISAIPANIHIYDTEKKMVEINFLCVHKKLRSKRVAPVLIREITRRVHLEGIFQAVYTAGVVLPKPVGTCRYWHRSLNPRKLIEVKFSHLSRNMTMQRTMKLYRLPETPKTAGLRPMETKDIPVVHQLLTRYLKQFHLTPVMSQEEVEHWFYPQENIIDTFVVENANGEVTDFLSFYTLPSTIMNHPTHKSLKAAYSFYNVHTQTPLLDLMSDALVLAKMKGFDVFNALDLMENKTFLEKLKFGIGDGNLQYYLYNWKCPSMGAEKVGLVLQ

[6] = system: melanoma; details: reported in literature; cited from earlier work

Compound | percent solubility in water by weight [1] | inhibition of LM36R tumor growth (tumor volume) [2] | SCG2 (secretogranin 2) gene expression [3] | solubility (general statement) [4] | solubility (general statement) ([4]; listed as Tris (dibenzylideneacetone) dipalladium) | behaviour in water, FBS, and cell culture media ([4]; water, FBS, cell culture media) | activity against the enzyme N-myristoyltransferase 1 [5] | efficacy against melanoma in vitro and preclinical models of pancreatic cancer, chronic lymphocytic leukemia, multiple myeloma [6]
CCCCCCCC [octane] | 0.63×10^−4 % w/w | – | – | – | – | – | – | –
Tris (dibenzylideneacetone) dipalladium [Tris DBA-Pd] | – | showed efficacy | downregulated | Water-insoluble | poor solubility | immediately precipitated | activity | efficacious
